Results as given in paper PMC11052077, “Discovery of Dolutegravir Derivative against Liver Cancer via Inducing Autophagy and DNA Damage” (Molecules, 2024).

Columns and labels:
[1] = tested on: hepG2 cells; experiment: CCK8 cell viability assay, hepG2; format: cell-based, human; settings: for Cell Viability (100%), 20 μM, 48 h, hepG2: hepG2, CCK8, control taken as 100%; for IC50: 48 h, hepG2, CCK8, read-out: half maximal inhibitory concentration (IC50), hepG2
Experimental: (§1) This study aimed to assess the anti-proliferative activity of dolutegravir-1,2,3-triazole derivatives on hepatocellular carcinoma cell lines, Huh7 and hepG2. A comprehensive CCK8 assay was employed to evaluate the impact of these compounds on cell viability, with cells treated at a concentration of 20 μM for 48 h. HRM cells, a normal cell line, were included as a control for comparative analysis.
(§2) Human hepatocellular carcinoma cell lines Huh7 and hepG2 were obtained from ATCC (Manassas, VA, USA). Cells were cultured in DMEM or RPMI 1640 medium containing 10% FBS and 1% penicillin/streptomycin at 37 °C with a 5% CO2-humidified atmosphere.
(§3) CCK8 assay was used to measure cell viability. Cells with a density of 1 × 10^4 cells/well were seeded on 96-well plates. After adhesion, cells were treated with different diluted compounds or vehicle control DMSO and continued to be cultured for 48 h or 72 h, respectively. Then, CCK8 reagent was added for one hour incubation at 37 °C with 5% CO2. Absorbance was measured using a Microplate spectrophotometer (Thermo, Waltham, MA, USA) at 450 nm. The ratio of cell viability of control was taken as 100%. […] Then, IC50 of compounds were investigated using the prism statistical software 7.0.

[2] = tested on: HRM cells (human renal mesangial cells); experiment: in vitro; format: cell-based; settings: 20 µM
Experimental: as §1, with “analysis. […]” for “analysis.”
as §3

[3] = tested on: Huh7 cells; experiment: CCK8 cell viability assay, Huh7; format: cell-based, human; settings: for Cell Viability (100%), 20 μM, 48 h, Huh7: Huh7, CCK8, control taken as 100%; for IC50: 48 h, Huh7, CCK8, read-out: half maximal inhibitory concentration (IC50), Huh7
Experimental: as §1, §2, §3

Structure (SMILES)	Cell Viability (100%), 20 μM, 48 h, hepG2 [1]	Cell Viability (100%), 20 μM, 48 h, HRM [2]	Cell Viability (100%), 20 μM, 48 h, Huh7 [3]	IC50 [1]	IC50 [3]
CCOc1ccc(-n2cc(-c3cccc(NC(=O)c4cn5c(c(OC)c4=O)C(=O)N4C(C)CCOC4C5)c3)nn2)cc1 (stereo not drawn) [Compound 5h]	90.41%	102.23%	72.06%	–	–
COc1c2n(cc(C(=O)Nc3cccc(-c4cn(-c5cc(C(F)(F)F)cc(C(F)(F)F)c5)nn4)c3)c1=O)CC1OCCC(C)N1C2=O (stereo not drawn) [Compound 5r]	78.52%	101.27%	80.13%	–	–
COc1c2n(cc(C(=O)Nc3cccc(-c4cn(Cc5ccccc5Br)nn4)c3)c1=O)CC1OCCC(C)N1C2=O (stereo not drawn) [Compound 6c]	46.80%	105.55%	39.13%	27.8 ± 2.94 µM	13.9 ± 0.81 µM
COc1c2n(cc(C(=O)Nc3cccc(-c4cn(-c5c(C)cc(C)cc5C)nn4)c3)c1=O)CC1OCCC(C)N1C2=O (stereo not drawn) [Compound 5z]	63.22%	100.35%	66.22%	–	–
COc1cccc(Cn2cc(-c3cccc(NC(=O)c4cn5c(c(OC)c4=O)C(=O)N4C(C)CCOC4C5)c3)nn2)c1 (stereo not drawn) [Compound 6d]	65.65%	98.59%	72.78%	–	–
COc1c2n(cc(C(=O)Nc3cccc(-c4cn(-c5ccccc5OC(F)(F)F)nn4)c3)c1=O)CC1OCCC(C)N1C2=O (stereo not drawn) [Compound 5i]	24.84%	70.03%	7.95%	9.43 ± 0.7 µM	12.3 ± 0.26 µM
COc1c2n(cc(C(=O)Nc3cccc(-c4cn(Cc5ccccc5)nn4)c3)c1=O)CC1OCCC(C)N1C2=O (stereo not drawn) [Compound 6b]	57.81%	99.53%	68.00%	–	–
COc1c2n(cc(C(=O)Nc3cccc(-c4cn(-c5ccccc5I)nn4)c3)c1=O)CC1OCCC(C)N1C2=O (stereo not drawn) [Compound 5w]	54.35%	92.77%	49.87%	25.7 ± 0.42 µM	15.9 ± 0.31 µM
COc1c2n(cc(C(=O)Nc3cccc(-c4cn(-c5cc(C(F)(F)F)ccc5C(F)(F)F)nn4)c3)c1=O)CC1OCCC(C)N1C2=O (stereo not drawn) [Compound 5q]	38.49%	91.40%	12.00%	18.5 ± 2.85 µM	7.85 ± 0.9 µM
COc1c2n(cc(C(=O)Nc3cccc(-c4cn(-c5ccc(C(C)(C)C)cc5)nn4)c3)c1=O)CC1OCCC(C)N1C2=O (stereo not drawn) [Compound 5n]	77.30%	108.06%	54.04%	–	–
COc1c2n(cc(C(=O)Nc3cccc(-c4cn(-c5ccccc5C(F)(F)F)nn4)c3)c1=O)CC1OCCC(C)N1C2=O (stereo not drawn) [Compound 5c]	54.14%	2.65%	36.28%	18.3 ± 1.14 µM	18.7 ± 0.53 µM
COc1c2n(cc(C(=O)Nc3cccc(-c4cn(-c5ccccc5F)nn4)c3)c1=O)CC1OCCC(C)N1C2=O (stereo not drawn) [Compound 5a]	90.43%	71.18%	83.32%	–	–
COc1ccc(-n2cc(-c3cccc(NC(=O)c4cn5c(c(OC)c4=O)C(=O)N4C(C)CCOC4C5)c3)nn2)cc1OC (stereo not drawn) [Compound 5j]	77.13%	108.54%	65.52%	–	–
COc1c2n(cc(C(=O)Nc3cccc(-c4cn(-c5ccc(C(F)(F)F)cc5)nn4)c3)c1=O)CC1OCCC(C)N1C2=O (stereo not drawn) [Compound 5d]	79.96%	108.43%	77.89%	–	–
COc1cc([N+](=O)[O-])ccc1-n1cc(-c2cccc(NC(=O)c3cn4c(c(OC)c3=O)C(=O)N3C(C)CCOC3C4)c2)nn1 (stereo not drawn) [Compound 5b]	93.94%	112.94%	110.94%	–	–
COc1c2n(cc(C(=O)Nc3cccc(-c4cn(-c5cccc(C)c5)nn4)c3)c1=O)CC1OCCC(C)N1C2=O (stereo not drawn) [Compound 5f]	12.96%	66.43%	15.92%	12.1 ± 0.77 µM	8.63 ± 0.33 µM
COc1c2n(cc(C(=O)Nc3cccc(-c4cn(-c5ccccc5)nn4)c3)c1=O)CC1OCCC(C)N1C2=O (stereo not drawn) [Compound 5o]	80.21%	100.28%	67.64%	–	–
COc1c2n(cc(C(=O)Nc3cccc(-c4cn(Cc5ccccc5C)nn4)c3)c1=O)CC1OCCC(C)N1C2=O (stereo not drawn) [Compound 6g]	52.95%	101.52%	39.11%	–	–
COc1c2n(cc(C(=O)Nc3cccc(-c4cn(Cc5cccc(Br)c5)nn4)c3)c1=O)CC1OCCC(C)N1C2=O (stereo not drawn) [Compound 6e]	55.14%	102.27%	20.45%	19.7 ± 2.19 µM	16.2 ± 0.37 µM
COc1c2n(cc(C(=O)Nc3cccc(-c4cn(-c5ccccc5Cl)nn4)c3)c1=O)CC1OCCC(C)N1C2=O (stereo not drawn) [Compound 5v]	38.75%	95.10%	37.66%	24.8 ± 2.21 µM	42.2 ± 1.1 µM
COc1c2n(cc(C(=O)Nc3cccc(-c4cn(-c5ccc(F)cc5)nn4)c3)c1=O)CC1OCCC(C)N1C2=O (stereo not drawn) [Compound 5g]	105.19%	103.67%	90.24%	–	–
COc1c2n(cc(C(=O)Nc3cccc(-c4cn(Cc5ccccc5F)nn4)c3)c1=O)CC1OCCC(C)N1C2=O (stereo not drawn) [Compound 6f]	63.23%	102.19%	54.58%	–	–
COc1cccc(-n2cc(-c3cccc(NC(=O)c4cn5c(c(OC)c4=O)C(=O)N4C(C)CCOC4C5)c3)nn2)c1 (stereo not drawn) [Compound 5l]	33.91%	94.97%	46.30%	10.6 ± 0.67 µM	7.62 ± 1.03 µM
CCc1ccccc1-n1cc(-c2cccc(NC(=O)c3cn4c(c(OC)c3=O)C(=O)N3C(C)CCOC3C4)c2)nn1 (stereo not drawn) [Compound 5k]	50.62%	0.81%	48.55%	15.2 ± 1.15 µM	16.9 ± 0.48 µM
CCc1ccc(-n2cc(-c3cccc(NC(=O)c4cn5c(c(OC)c4=O)C(=O)N4C(C)CCOC4C5)c3)nn2)cc1 (stereo not drawn) [Compound 5m]	77.30%	101.13%	36.41%	–	–
COc1c2n(cc(C(=O)Nc3cccc(-c4cn(Cc5cc(Br)cc(Br)c5)nn4)c3)c1=O)CC1OCCC(C)N1C2=O (stereo not drawn) [Compound 6a]	66.48%	84.46%	75.97%	–	–
COc1c2n(cc(C(=O)Nc3cccc(-c4cn(-c5ccccc5Br)nn4)c3)c1=O)CC1OCCC(C)N1C2=O (stereo not drawn) [Compound 5u]	47.16%	100.10%	33.46%	34.7 ± 5.13 µM	12.6 ± 0.58 µM
COc1ccccc1-n1cc(-c2cccc(NC(=O)c3cn4c(c(OC)c3=O)C(=O)N3C(C)CCOC3C4)c2)nn1 (stereo not drawn) [Compound 5t]	41.93%	73.24%	29.33%	11.2 ± 0.32 µM	10.8 ± 0.85 µM
COc1c2n(cc(C(=O)Nc3cccc(-c4cn(-c5ccc(C)cc5)nn4)c3)c1=O)CC1OCCC(C)N1C2=O (stereo not drawn) [Compound 5y]	69.40%	103.82%	79.52%	–	–
COc1c2n(cc(C(=O)Nc3cccc(-c4cn(Cc5ccccc5C(F)(F)F)nn4)c3)c1=O)CC1OCCC(C)N1C2=O (stereo not drawn) [Compound 6h]	66.45%	93.73%	50.37%	–	–
